The source made the active and inactive calls.
Tests used:
Cytochrome P450 2C9 = Cytochrome P450 2C9 (Homo sapiens, UniProt P11712)
Cytochrome P450 1A2 = target: T1, Cytochrome P450 1A2 (Homo sapiens, UniProt P05177);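 further: PubChem cytochrome P450 panel assay, CYP1A2 panel member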
T1 sequence (P05177 whole entry): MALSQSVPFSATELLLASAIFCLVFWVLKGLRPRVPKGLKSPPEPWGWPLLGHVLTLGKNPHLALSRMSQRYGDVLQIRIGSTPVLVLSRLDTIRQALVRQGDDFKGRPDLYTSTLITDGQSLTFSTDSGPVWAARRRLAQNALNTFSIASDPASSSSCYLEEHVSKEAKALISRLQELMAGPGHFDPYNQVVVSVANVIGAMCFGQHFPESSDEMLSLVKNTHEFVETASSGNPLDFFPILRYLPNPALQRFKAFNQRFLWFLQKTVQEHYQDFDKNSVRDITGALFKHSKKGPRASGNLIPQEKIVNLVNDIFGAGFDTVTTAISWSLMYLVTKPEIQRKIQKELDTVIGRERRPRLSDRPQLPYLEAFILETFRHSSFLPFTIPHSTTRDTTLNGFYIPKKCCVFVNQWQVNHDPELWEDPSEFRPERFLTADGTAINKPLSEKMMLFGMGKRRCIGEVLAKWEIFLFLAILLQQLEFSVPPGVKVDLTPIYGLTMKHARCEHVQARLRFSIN

[1] = NIH-3T3 fibroblast cytotoxicity, dose response, cytotoxicity control, cell-based, fluorescence, Alamar Blue, secondary assay (AID 2327); format: functional;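 further: NIH-3T3 mouse fibroblasts cultured with fluconazole at 8 µg/mL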
[2] = test system: Streptococcus sp. 'group A'; test: growth inhibition of control SK(-) GAS strain, dose response, counter-screen for streptokinase expression inhibitor project, luminescence, kanamycin, BacTiterGlo, confirmation (AID 1900); format: functional, organism-based
Streptokinase A = target: T2, Streptokinase A (Streptococcus pyogenes serotype M1, UniProt P10520); test: S. pyogenes streptokinase expression inhibitors, potency, dose response, plasminogen activation absorbance, OD405 (AID 1914); format: functional, Streptococcus pyogenes M1 GAS;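 further: secreted streptokinase activity via plasminogen activation per viability signal from cell pellet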
T2 sequence (P10520 whole entry): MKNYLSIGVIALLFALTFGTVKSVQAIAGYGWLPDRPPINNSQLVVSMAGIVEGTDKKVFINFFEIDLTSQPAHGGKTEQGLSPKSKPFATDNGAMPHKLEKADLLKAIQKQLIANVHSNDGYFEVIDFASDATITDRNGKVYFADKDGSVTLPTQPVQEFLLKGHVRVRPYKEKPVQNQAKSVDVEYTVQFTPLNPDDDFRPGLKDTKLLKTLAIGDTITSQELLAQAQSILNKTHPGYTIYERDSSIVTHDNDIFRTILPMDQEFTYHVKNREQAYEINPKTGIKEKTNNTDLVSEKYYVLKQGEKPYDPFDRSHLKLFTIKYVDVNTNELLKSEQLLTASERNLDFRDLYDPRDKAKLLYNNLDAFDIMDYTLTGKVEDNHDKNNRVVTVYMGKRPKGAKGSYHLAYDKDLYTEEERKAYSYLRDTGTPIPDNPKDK

[3] = C. albicans growth with fluconazole, confirmation, fluorescence, retest (AID 2467); format: functional, cell-based
Streptococcus = test: Group A Streptococcus viability loss, dose response, counter-screen for streptokinase expression inhibitor project, luminescence, BacTiterGlo (AID 1915); format: functional, organism-based;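 further: potency for reduction of bacterial viability or growth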
[4] = Shn3 3'UTR reporter inhibitors, dose response, cell-based, Clone20 osteoblasts, firefly luciferase, cherry-picked (AID 624132); format: functional;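 further: firefly luciferase luminescence from reporter carrying the Shn3 3'UTR in osteoblasts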
[5] = HepG2 cell cytotoxicity, dose response, cytotoxicity control for Shn3 inhibitor project, CellTiter-Glo, cherry-picked (AID 624134); format: functional, cell-based
[6] = control 3'UTR Renilla luciferase suppression, dose response, counter-screen for Shn3 inhibitor project, cell-based, Clone20-Shn3RL, cherry-picked (AID 624133); format: functional
Cytochrome P450 3A4 = Cytochrome P450 3A4 (Homo sapiens, UniProt P08684);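 further: CYP3A4 tested as one member of a cytochrome P450 panel screen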
[7] = target: T3, Corticotropin-releasing factor receptor 2/Corticotropin-releasing factor-binding protein (Homo sapiens, UniProt P24387+Q13324); test: Dose Response confirmation of uHTS hits for small molecule antagonists of the CRF-binding protein and CRF-R2 receptor complex.; format: functional; conditions: read-out: IC50_Mean
T3 sequence (Q13324 whole entry): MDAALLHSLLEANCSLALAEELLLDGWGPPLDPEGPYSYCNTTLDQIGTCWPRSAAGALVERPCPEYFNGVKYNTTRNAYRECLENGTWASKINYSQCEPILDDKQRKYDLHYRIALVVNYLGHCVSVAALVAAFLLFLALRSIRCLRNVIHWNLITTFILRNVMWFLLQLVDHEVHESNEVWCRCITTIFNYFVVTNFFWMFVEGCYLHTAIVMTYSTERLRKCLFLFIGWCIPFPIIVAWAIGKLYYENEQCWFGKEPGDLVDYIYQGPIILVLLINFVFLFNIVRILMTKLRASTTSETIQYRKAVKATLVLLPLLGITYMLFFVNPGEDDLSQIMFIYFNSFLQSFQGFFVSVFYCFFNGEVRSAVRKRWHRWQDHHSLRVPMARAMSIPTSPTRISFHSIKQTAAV
T3 sequence (P24387 whole entry): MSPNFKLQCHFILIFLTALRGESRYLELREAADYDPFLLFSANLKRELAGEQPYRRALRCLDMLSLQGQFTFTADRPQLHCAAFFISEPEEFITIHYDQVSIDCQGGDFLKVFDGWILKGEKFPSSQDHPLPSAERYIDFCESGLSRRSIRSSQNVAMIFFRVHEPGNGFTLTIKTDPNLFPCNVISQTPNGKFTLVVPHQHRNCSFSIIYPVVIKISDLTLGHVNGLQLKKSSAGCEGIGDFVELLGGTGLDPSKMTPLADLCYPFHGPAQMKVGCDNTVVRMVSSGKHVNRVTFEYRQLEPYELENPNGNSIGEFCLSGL

[8] = target: T3, Corticotropin-releasing factor receptor 2/Corticotropin-releasing factor-binding protein; test: activators of CRF receptor 2 with binding protein – uHTS hits, confirmation (AID 602473); format: functional; conditions: read-out: EC50_Mean
[9] = target: T4, RNA-binding protein pos-1 (Caenorhabditis elegans, UniProt G5EF15); test: inhibitors of POS-1/mex-3 RNA binding, dose response, biochemical, fluorescence polarization (AID 1964);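 further: purified POS-1 fused to maltose binding protein made in E. coli; potency of compounds blocking POS-1 binding to fluorescent RNA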
T4 sequence (G5EF15 whole entry): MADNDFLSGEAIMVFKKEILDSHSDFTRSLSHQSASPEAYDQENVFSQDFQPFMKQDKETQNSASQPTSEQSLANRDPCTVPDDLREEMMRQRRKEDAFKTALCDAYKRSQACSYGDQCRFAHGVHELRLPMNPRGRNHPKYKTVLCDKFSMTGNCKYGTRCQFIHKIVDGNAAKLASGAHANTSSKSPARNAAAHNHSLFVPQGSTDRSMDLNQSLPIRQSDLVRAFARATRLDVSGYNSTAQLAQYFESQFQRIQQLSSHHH

[10] = target: T5, Zinc finger protein mex-5 (Caenorhabditis elegans, UniProt Q9XUB2); test: MEX-5/TCR-2 RNA interaction inhibitors, dose response, biochemical, C. elegans, fluorescence polarization (AID 1960)
T5 sequence (Q9XUB2 whole entry): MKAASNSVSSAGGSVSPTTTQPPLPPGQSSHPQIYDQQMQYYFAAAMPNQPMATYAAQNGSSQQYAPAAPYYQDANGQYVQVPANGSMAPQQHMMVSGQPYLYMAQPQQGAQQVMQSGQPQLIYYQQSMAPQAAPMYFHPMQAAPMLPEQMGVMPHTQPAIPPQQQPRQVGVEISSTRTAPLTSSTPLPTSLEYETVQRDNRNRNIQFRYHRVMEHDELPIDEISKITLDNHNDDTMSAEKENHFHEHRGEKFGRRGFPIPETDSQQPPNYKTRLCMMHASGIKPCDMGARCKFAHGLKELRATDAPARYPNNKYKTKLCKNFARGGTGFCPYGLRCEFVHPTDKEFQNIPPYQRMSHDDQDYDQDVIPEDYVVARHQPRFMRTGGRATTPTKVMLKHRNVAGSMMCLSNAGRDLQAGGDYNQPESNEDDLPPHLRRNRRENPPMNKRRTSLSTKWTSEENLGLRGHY

Cytochrome P450 2C19 = Cytochrome P450 2C19 (Homo sapiens, UniProt P33261); test: Cytochrome panel assay with activity outcomes. Panel member name: p450-cyp2c19 Compounds with AC50 equal or less than 10 uM are considered active; format: functional
[11] = HEp-2 cell cytotoxicity, dose response, cytotoxicity control for RSV inhibitor project, HTS (AID 2410); format: functional; conditions: human respiratory syncytial virus
[12] = growth suppression of PTEN-null colon cells, dose response, cell-based, HCT116 PTEN knockout (AID 1047); format: functional;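 further: HCT116 colon tumor cells with PTEN knocked out; cells exposed to compound for 60 hours before readout; potency for loss of cell viability measured by luminescence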
[13] = growth suppression of beta-catenin-knockout colon cells, dose response, cell-based, HCT116, human colon tumor (AID 1045); format: functional;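 further: HCT116 colon tumor cells with beta catenin knocked out; cells exposed to compound for 60 hours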

Chain of Cytochrome P450 2C9 (P11712 whole entry): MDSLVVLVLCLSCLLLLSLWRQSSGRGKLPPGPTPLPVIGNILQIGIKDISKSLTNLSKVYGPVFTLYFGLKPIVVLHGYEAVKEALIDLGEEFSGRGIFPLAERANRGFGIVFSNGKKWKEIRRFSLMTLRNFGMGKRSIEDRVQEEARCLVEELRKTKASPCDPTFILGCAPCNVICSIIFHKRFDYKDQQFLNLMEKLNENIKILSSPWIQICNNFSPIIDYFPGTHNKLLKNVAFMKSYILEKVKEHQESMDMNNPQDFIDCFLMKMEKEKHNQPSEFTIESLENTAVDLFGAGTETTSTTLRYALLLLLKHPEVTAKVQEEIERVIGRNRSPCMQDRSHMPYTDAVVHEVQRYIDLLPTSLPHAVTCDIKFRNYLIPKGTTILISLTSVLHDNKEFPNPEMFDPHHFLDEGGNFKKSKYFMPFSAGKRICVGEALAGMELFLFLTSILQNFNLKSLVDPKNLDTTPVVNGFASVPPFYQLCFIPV
Chain of Cytochrome P450 2C19 (P33261 whole entry): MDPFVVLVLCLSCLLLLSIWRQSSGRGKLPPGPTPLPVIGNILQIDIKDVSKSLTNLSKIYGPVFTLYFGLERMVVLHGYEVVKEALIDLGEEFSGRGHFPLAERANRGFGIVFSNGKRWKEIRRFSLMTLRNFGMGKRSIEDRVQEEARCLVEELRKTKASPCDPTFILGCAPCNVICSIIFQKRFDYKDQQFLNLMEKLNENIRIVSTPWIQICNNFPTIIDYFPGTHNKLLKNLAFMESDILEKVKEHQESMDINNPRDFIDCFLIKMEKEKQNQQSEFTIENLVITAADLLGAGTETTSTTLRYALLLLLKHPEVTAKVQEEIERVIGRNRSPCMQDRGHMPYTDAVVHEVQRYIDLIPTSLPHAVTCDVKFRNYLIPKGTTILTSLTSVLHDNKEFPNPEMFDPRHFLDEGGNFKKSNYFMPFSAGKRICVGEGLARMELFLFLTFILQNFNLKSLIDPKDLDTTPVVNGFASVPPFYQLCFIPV
Chain of Cytochrome P450 3A4 (P08684 whole entry): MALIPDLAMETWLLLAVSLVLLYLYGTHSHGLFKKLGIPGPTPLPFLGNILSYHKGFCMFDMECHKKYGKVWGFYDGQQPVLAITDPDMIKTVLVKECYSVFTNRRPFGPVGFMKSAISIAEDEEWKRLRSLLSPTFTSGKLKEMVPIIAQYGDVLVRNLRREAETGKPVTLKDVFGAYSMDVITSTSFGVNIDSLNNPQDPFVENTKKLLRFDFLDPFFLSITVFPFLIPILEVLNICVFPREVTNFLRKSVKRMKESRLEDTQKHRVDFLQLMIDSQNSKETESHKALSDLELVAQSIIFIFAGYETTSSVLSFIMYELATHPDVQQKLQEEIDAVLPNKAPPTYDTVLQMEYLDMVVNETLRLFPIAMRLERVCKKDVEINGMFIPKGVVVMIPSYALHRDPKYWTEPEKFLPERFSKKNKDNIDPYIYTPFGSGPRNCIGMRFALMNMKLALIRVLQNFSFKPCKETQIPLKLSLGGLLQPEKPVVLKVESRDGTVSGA

Compound: CCOC(=O)c1c(NC(=O)CCc2ccc(CC)o2)sc(C)c1C
- AC50 (Cytochrome P450 2C9): inconclusive

Compound: O=C(NCc1ccccn1)C1CC(c2ccc(Cl)c(Cl)c2)=NO1 (stereo not drawn)
- AC50 (Cytochrome P450 1A2): 4.47 µM (inconclusive)
- AC50 (Cytochrome P450 2C9): inconclusive

Compound: Cc1nnc(NC(=O)c2ccc(S(=O)(=O)N(C)Cc3ccccc3)cc2)o1
- EC50 [1]: 21.7 µM (active)
- EC50 [2]: 4.98 µM (active)
- EC50 (Streptokinase A): > 150 µM (not active)
- EC50 [3]: 2.21 µM (active)
- EC50 (Streptococcus): 17 µM (active)

Compound: Cc1ccc(-n2nnnc2SCC(=O)NNC(=O)c2ccco2)c(C)c1
- AC50 (Cytochrome P450 2C9): inconclusive

Compound: NC(S)=Nc1cccc2cccnc12
- AC50 (Cytochrome P450 2C9): inconclusive

Compound: CCOc1ccc(C(=O)O)cc1OC
- AC50 (Cytochrome P450 2C9): inconclusive

Compound: Cc1cc(C)c(C#N)c(SC[S+]([O-])c2ccc(C(C)(C)C)cc2)n1 (stereo not drawn)
- AC50 (Cytochrome P450 2C9): inconclusive

Compound: CCN(CC)C(=O)C1CCN(S(=O)(=O)c2ccc3oc4ccccc4c3c2)CC1
- AC50 [4]: 3.96 µM (active)
- AC50 [5]: > 70 µM (inactive)
- AC50 [6]: 10.1 µM (active)
- AC50 (Cytochrome P450 3A4): 3.98 µM (inconclusive)
- AC50 (Cytochrome P450 2C9): inconclusive

Compound: COc1ccc(OC)c(S(=O)(=O)N2CCC(C(=O)Nc3ccc(C)c(C)c3)CC2)c1
- AC50 (Cytochrome P450 1A2): 12.6 µM (inconclusive)
- AC50 (Cytochrome P450 2C9): inconclusive

Compound: Cc1nc(N)sc1-c1csc(N(C)c2ccc(O)cc2)n1
- EC50 [2]: 5.24 µM (active)
- EC50 (Streptokinase A): > 150 µM (not active)
- EC50 (Streptococcus): 95.2 µM (active)
- IC50 [7]: > 47.1 µM (inactive)
- EC50 [8]: > 53 µM (inactive)

Compound: CCOC(=O)c1c(NC(S)=NCCc2ccccc2)sc2c1CC(C(C)C)OC2 (stereo not drawn)
- EC50 [2]: 0.814 µM (active)
- EC50 (Streptokinase A): > 150 µM (not active)
- EC50 (Streptococcus): 15.1 µM (active)

Compound: Cc1ccc2cc3cc(C(=O)N4CCC5(CC4)OCCO5)oc3nc2c1
- AC50 (Cytochrome P450 2C9): inconclusive

Compound: Cc1ccc(NC(=O)/C(C#N)=C/c2ccc(C)s2)c(C)c1
- EC50 [9]: 64.2 µM (inconclusive)
- EC50 [10]: 9.25 µM (active)

Compound: COc1cccc(C(=O)NC(=S)Nc2ccccc2N2CCCCC2)c1
- EC50 [2]: 57.8 µM (active)
- EC50 (Streptokinase A): 41 µM (active)
- EC50 (Streptococcus): > 150 µM (not active)

Compound: Nc1c(NCCC2=CCCCC2)c(=O)[nH]c(=O)n1Cc1ccccc1
- EC50 [9]: 23.2 µM (active)
- EC50 [10]: 13.9 µM (active)

Compound: NS(=O)(=O)c1ccc(NC(S)=NNC(=O)CCC(=O)Nc2ccccc2Cl)cc1
- EC50 [9]: 13 µM (inconclusive)
- EC50 [10]: 12.2 µM (active)

Compound: CSC(=Nc1ccc(F)c(Cl)c1)NS(=O)(=O)c1cccs1
- EC50 [1]: > 150 µM (inactive)
- EC50 [3]: 0.805 µM (active)

Compound: O=C(CCN1C(=O)/C(=C\C=C\c2ccccc2)SC1=S)Nc1ccc(C(=O)O)cc1
- EC50 [9]: > 300 µM (not active)
- EC50 [10]: 38.7 µM (active)

Compound: O=C(NNC(=O)c1cnccn1)c1ccc(Cl)cc1
- EC50 [9]: 95.9 µM (active)
- EC50 [10]: 12.4 µM (active)

Compound: CCN=C(S)N1CCC(NC(=O)C2CCCCC2)CC1
- AC50 (Cytochrome P450 2C19): inconclusive
- AC50 (Cytochrome P450 2C9): inconclusive

Compound: CCCOc1ccc(C2C(C(=O)c3cc4ccccc4o3)=C(O)C(=O)N2c2cc(C)on2)cc1OC (stereo not drawn)
- EC50 [2]: 1.2 µM (active)
- EC50 (Streptokinase A): > 150 µM (not active)
- EC50 (Streptococcus): 5.24 µM (active)

Compound: Cc1ccc(-c2nn(-c3ccccc3)cc2/C=N/n2c(S)nnc2-c2cccs2)cc1
- CC50 [11]: 14.7 µM (active)
- EC50 [2]: 10.3 µM (active)
- EC50 (Streptokinase A): 103 µM (active)
- EC50 (Streptococcus): 82.8 µM (active)

Compound: CC1(C)CC(=O)C=C(Nc2ccc([N+](=O)[O-])cc2)C1
- EC50 [1]: > 160 µM (inactive)
- EC50 [3]: 2.93 µM (active)

Compound: COC(=O)N/N=C\C=C\c1ccc2c(c1)OCO2
- AC50 (Cytochrome P450 2C9): inconclusive

Compound: CCOc1ccc(/C=N/Nc2nc(N3CCCC3)nc(N3CCCC3)n2)cc1OC
- AC50 (Cytochrome P450 2C19; read-out: AC50): 39.8 µM (inconclusive)
- AC50 (Cytochrome P450 1A2): 39.8 µM (inconclusive)
- AC50 (Cytochrome P450 2C9): inconclusive

Compound: CCN(CC)c1ccc(/C=N/Nc2nc3ccccc3[nH]2)cc1
- EC50 [1]: 6.64 µM (active)
- EC50 [3]: > 38 µM (not active)
- EC50 [12]: 2.96 µM (active)
- EC50 [13]: 2.76 µM (active)

Compound: CO/N=C/C(=C\Nc1ccc(Cl)cc1Cl)c1ncc(C(F)(F)F)cc1Cl
- EC50 [1]: > 160 µM (inconclusive)

Source: ChEMBL document CHEMBL1201862, “PubChem BioAssay data set” (2004)
